Read-outs that look alike come from different tables or passages of the source.
Key:
Plasmopara viticola = Plasmopara viticola (downy mildew of grapevine), grapevine leaf disk assay, preventive; format: in vivo; conditions: foliar, 168 h, read-out: control of fungal infection, Plasmopara viticola
Phytophthora infestans = assay: whole plant or invertebrate; format: in vivo; conditions: in Solanum lycopersicum, foliar, 96 h, read-out: control of fungal infection, Phytophthora infestans
[1] = test system: Erysiphe graminis f.sp. tritici; assay: Erysiphe graminis f.sp. tritici (wheat powdery mildew), wheat leaf segment assay, preventive; format: in vivo; conditions: Blumeria graminis, foliar, 96 h, read-out: control of fungal infection, Etysiphe graminis f.sp. tritici
Septoria tritici = Septoria tritici (leaf blotch), liquid culture growth inhibition in nutrient broth; format: cell-based; conditions: Zymoseptoria tritici, read-out: control of fungal infection, Septoria tritici
Fusarium culmorum = Fusarium culmorum (root rot), liquid culture growth inhibition in nutrient broth; format: cell-based; conditions: PDB broth, 24 C, inhibition of growth determined photometrically after 48 hrs, read-out: control of fungal infection, Fusarium culmorum
Summary of the method: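 Fusarium culmorum conidia from cryogenic storage were mixed into potato dextrose broth and added to compound pre-dispensed from DMSO (diluted in 0.025% Tween20). Incubated at 24 C in the dark; growth inhibition read photometrically after 48 hrs.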

Pythium ultimum = Pythium ultimum (Damping off), liquid culture growth inhibition in potato dextrose broth; format: cell-based; conditions: Globisporangium ultimum, read-out: control of fungal infection, Pythium ultimum
Botrytis cinerea = Botrytis cinerea (grey mould), bean leaf disk assay, preventive; format: in vivo; conditions: foliar, 96 h, read-out: control of fungal infection, Botrytis cinerea
[2] = test system: Puccinia recondita f.sp. tritici; assay: Puccinia recondita f.sp. tritici (wheat brown rust), wheat leaf segment assay, preventive; format: in vivo; conditions: foliar, 216 h, read-out: control of fungal infection, Puccinia recondite f.sp. tritici
Septoria nodorum = Septoria nodorum (wheat glume blotch), wheat leaf segment assay, preventive; format: in vivo; conditions: Parastagonospora nodorum, foliar, 96 h, read-out: control of fungal infection, Septoria nodorum
[3] = 200 ppm, grapevine leaf disks, assessed seven days after inoculation
[4] = 200 ppm, wheat leaf segments, assessed four days after inoculation
[5] = 200 ppm, PDB broth, 24 C, inhibition of growth determined photometrically after 72 hrs
[6] = 20 ppm, potato dextrose broth, 24° C., inhibition of growth determined photometrically after 48 hours
[7] = 200 ppm, bean leaf disks, assessed four days after inoculation
[8] = 200 ppm, wheat leaf segments, assessed nine days after inoculation

Row | SMILES | pest or weed control at 200 ppm (Plasmopara viticola; [3]) | pest or weed control at 200 ppm (Phytophthora infestans) | pest or weed control at 200 ppm [1, 4] | inhibition of growth at 200 ppm (Septoria tritici; [5]) | inhibition of growth at 200 ppm (Fusarium culmorum) | inhibition of growth at 20 ppm (Pythium ultimum; [6]) | melting point | pest or weed control at 200 ppm (Botrytis cinerea; [7]) | pest or weed control at 200 ppm [2, 8] | pest or weed control at 200 ppm (Septoria nodorum; [4]) | pest or weed control at 200 ppm (Plasmopara viticola) | pest or weed control at 200 ppm [1] | pest or weed control at 200 ppm (Botrytis cinerea) | pest or weed control at 200 ppm [2] | pest or weed control at 200 ppm (Septoria nodorum) | inhibition of growth at 200 ppm (Septoria tritici; 72 h) | inhibition of growth at 20 ppm (Pythium ultimum; 48 h)
1 | CON=CC(C)(C#N)NC(=O)C(Oc1cc(C)c2ncc(Br)cc2c1)SC (stereo not shown) [Compound No. 54, 2-(3-Bromo-8-methyl-quinolin-6-yloxy)-N-(1-cyano-2-methoxyimino-1-methyl-ethyl)-2-methylsulfanyl-acetamide] | ≥ 60% | ≥ 60% | ≥ 60% | ≥ 60% | ≥ 60% | ≥ 60% | 156 to 159 °C |  |  |  |  |  |  |  |  |  | 
2 | C#Cc1cnc2ccc(OC(SC)C(=O)NC(C)(C=NOC)COC)cc2c1 (stereo not shown) [Compound No. 65, 2-(3-Ethynyl-quinolin-6-yloxy)-N-(2-methoxyimino-1-methoxymethyl-1-methyl-ethyl)-2-methylsulfanyl-acetamide] | ≥ 60% | ≥ 60% | ≥ 60% | ≥ 60% | ≥ 60% | ≥ 60% |  | ≥ 60% | ≥ 60% | ≥ 60% |  |  |  |  |  |  | 
3 | CON=CC(C)(C)NC(=O)C(Oc1cc(C)c2ncncc2c1)SC (stereo not shown) [Compound No. 91, N-(2-Methoxyimino-1,1-dimethyl-ethyl)-2-(8-methyl-quinazolin-6-yloxy)-2-methylsulfanyl-acetamide] | ≥ 60% | ≥ 60% |  |  |  | ≥ 60% | 109 to 112 °C | ≥ 60% |  |  |  |  |  |  |  |  | 
4 | CON=CC(C)(C)NC(=O)C(Oc1ccc2ocnc2c1)SC (stereo not shown) [Compound No. 88, 2-(benzooxazol-5-yloxy)-N-(2-methoxyimino-1,1-dimethyl-ethyl)-2-methylsulfanyl-acetamide] |  |  |  |  |  | ≥ 60% | 95 to 96 °C |  |  |  |  |  |  |  |  |  | 
5 | C#Cc1cnc2ccc(OC(OC)C(=O)NC(C)(C)C=NOC)cc2c1 (stereo not shown) [Compound No. 76, 2-(3-Ethynyl-quinolin-6-yloxy)-2-methoxy-N-(2-methoxyimino-1,1-dimethyl-ethyl)-acetamide] |  | ≥ 60% |  |  | ≥ 60% |  |  |  |  |  | ≥ 60% | ≥ 60% | ≥ 60% | ≥ 60% | ≥ 60% | ≥ 60% | ≥ 60%
6 | CON=CC(C)(C#N)NC(=O)C(Oc1ccc2ncc(C#C[Si](C)(C)C)cc2c1)SC (stereo not shown) [Compound No. 58, N-(1-Cyano-2-methoxyimino-1-methyl-ethyl)-2-methylsulfanyl-2-(3-trimethylsilanylethynyl-quinolin-6-yloxy)-acetamide] | ≥ 60% | ≥ 60% | ≥ 60% | ≥ 60% |  | ≥ 60% | 69 to 75 °C | ≥ 60% |  | ≥ 60% |  |  |  |  |  |  | 
7 | C#Cc1cnc2ccc(OC(SC)C(=O)NC(C)(C#C)C=NOC)cc2c1 (stereo not shown) [Compound No. 69, 2-(3-Ethynyl-quinolin-6-yloxy)-N-[1-(methoxyimino-methyl)-1-methyl-prop-2-ynyl]-2-methylsulfanyl-acetamide] | ≥ 60% | ≥ 60% | ≥ 60% | ≥ 60% | ≥ 60% | ≥ 60% |  | ≥ 60% | ≥ 60% | ≥ 60% |  |  |  |  |  |  | 
8 | C#Cc1cnc2ccc(OC(SC)C(=O)NC(C)(C)CC=NOC)cc2c1 (stereo not shown) [Compound No. 95, 2-(3-Ethynyl-quinolin-6-yloxy)-N-(3-methoxyimino-1,1-dimethyl-propyl)-2-methylsulfanyl-acetamide] | ≥ 60% | ≥ 60% | ≥ 60% | ≥ 60% | ≥ 60% | ≥ 60% |  | ≥ 60% | ≥ 60% | ≥ 60% |  |  |  |  |  |  | 
9 | C#Cc1cnc2ccc(OC(CC)C(=O)NC(C)(C#N)C=NOC)cc2c1 (stereo not shown) [Compound No. 61, N-(1-Cyano-2-methoxyimino-1-methyl-ethyl)-2-(3-ethynyl-quinolin-6-yloxy)-butyramide] | ≥ 60% | ≥ 60% | ≥ 60% | ≥ 60% | ≥ 60% | ≥ 60% |  | ≥ 60% | ≥ 60% | ≥ 60% |  |  |  |  |  |  | 
10 | C#Cc1cnc2c(C)cc(OC(OC)C(=O)NC(C)(C)C=NOC)cc2c1 (stereo not shown) [Compound No. 77, 2-(3-Ethynyl-8-methyl-quinolin-6-yloxy)-2-methoxy-N-(2-methoxyimino-1,1-dimethyl-ethyl)-acetamide] | ≥ 60% | ≥ 60% | ≥ 60% | ≥ 60% | ≥ 60% | ≥ 60% | 138 to 140 °C |  | ≥ 60% | ≥ 60% |  |  |  |  |  |  | 
11 | CON=CC(C)(C)NC(=O)C(Oc1cc(Cl)c2ncc(Cl)cc2c1)SC (stereo not shown) [Compound No. 90, 2-(3,8-Dichloro-quinolin-6-yloxy)-N-(2-methoxyimino-1,1-dimethyl-ethyl)-2-methylsulfanyl-acetamide] | ≥ 60% |  | ≥ 60% | ≥ 60% |  | ≥ 60% | 158 to 161 °C | ≥ 60% |  |  |  |  |  |  |  |  | 
12 | CON=CC(C)(C)NC(=O)C(OC)Oc1cc(C)c2ncc(Br)cc2c1 (stereo not shown) [Compound No. 71, 2-(3-Bromo-8-methyl-quinolin-6-yloxy)-2-methoxy-N-(2-methoxyimino-1,1-dimethyl-ethyl)-acetamide] | ≥ 60% |  | ≥ 60% | ≥ 60% | ≥ 60% |  | 130 to 132 °C | ≥ 60% |  |  |  |  |  |  |  |  | 
13 | COCC(C)(C=NOC)NC(=O)C(Oc1ccc2ncc(Br)cc2c1)SC (stereo not shown) [Compound No. 64, 2-(3-Bromo-quinolin-6-yloxy)-N-[2-methoxy-1-(methoxyimino-methyl)-1-methyl-ethyl]-2-methylsulfanyl-acetamide] | ≥ 60% | ≥ 60% | ≥ 60% | ≥ 60% | ≥ 60% | ≥ 60% |  | ≥ 60% | ≥ 60% | ≥ 60% |  |  |  |  |  |  | 
14 | CON=CC(C)(C)NC(=O)C(Oc1cc(Cl)c2ccsc2c1)SC (stereo not shown) [Compound No. 81, 2-(4-Chloro-benzo[b]thiophen-6-yloxy)-N-(2-methoxyimino-1,1-dimethyl-ethyl)-2-methylsulfanyl-acetamide] | ≥ 60% |  |  | ≥ 60% |  |  | 120 to 122 °C | ≥ 60% |  |  |  |  |  |  |  |  | 
15 | CON=CC(C)(C#N)NC(=O)C(Oc1ccc2ncc(I)cc2c1)SC (stereo not shown) [Compound No. 57, N-(1-Cyano-2-methoxyimino-1-methyl-ethyl)-2-(3-iodo-quinolin-6-yloxy)-2-methylsulfanyl-acetamide] | ≥ 60% | ≥ 60% | ≥ 60% | ≥ 60% | ≥ 60% | ≥ 60% | 59 to 64 °C |  | ≥ 60% | ≥ 60% |  |  |  |  |  |  | 
16 | CCC(Oc1ccc2ncc(Br)cc2c1)C(=O)NC(C)(C#N)C=NOC (stereo not shown) [Compound No. 60, 2-(3-Bromo-quinolin-6-yloxy)-N-(1-cyano-2-methoxyimino-1-methyl-ethyl)-butyramide] |  | ≥ 60% |  | ≥ 60% |  | ≥ 60% | 152 to 155 °C | ≥ 60% |  |  |  |  |  |  |  |  | 
